Assay results from patent US9040714B2 (MannKind Corporation, priority 2010, dated 2015).
Read-outs that look alike come from different tables or passages of the source.

Columns and labels:
[1] = tested on: IRE-1α-mediated XBP-1 splicing in human myeloma MM.1s cells; assay: Cellular EC50: endogenous XBP-1 splicing in myeloma cells by RT-PCR (DTT stress); assay type: cell-based; conditions: MM1.S, read-out: EC50_av
Summary of the method: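 MM.1s myeloma cells were pretreated with compound 1.25 h, then stressed with 2 mM DTT for 45 min more (2 h total). XBP-1 was amplified by RT-PCR from total RNA with intron-flanking primers; ED50 taken at 50% spliced XBP-1s of total XBP-1.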

[2] = molecular target: human IRE-1α (GST-IRE-1α) (Homo sapiens (Human), UniProt O75460); assay: IRE-1α assay in vitro: cleavage of Cy5/BHQ2-labelled mini-XBP-1 mRNA stem-loop substrate; assay type: biochemical; conditions: average IC50 for inhibition of IRE-1α
human IRE-1α (GST-IRE-1α), sequence (O75460 19-977): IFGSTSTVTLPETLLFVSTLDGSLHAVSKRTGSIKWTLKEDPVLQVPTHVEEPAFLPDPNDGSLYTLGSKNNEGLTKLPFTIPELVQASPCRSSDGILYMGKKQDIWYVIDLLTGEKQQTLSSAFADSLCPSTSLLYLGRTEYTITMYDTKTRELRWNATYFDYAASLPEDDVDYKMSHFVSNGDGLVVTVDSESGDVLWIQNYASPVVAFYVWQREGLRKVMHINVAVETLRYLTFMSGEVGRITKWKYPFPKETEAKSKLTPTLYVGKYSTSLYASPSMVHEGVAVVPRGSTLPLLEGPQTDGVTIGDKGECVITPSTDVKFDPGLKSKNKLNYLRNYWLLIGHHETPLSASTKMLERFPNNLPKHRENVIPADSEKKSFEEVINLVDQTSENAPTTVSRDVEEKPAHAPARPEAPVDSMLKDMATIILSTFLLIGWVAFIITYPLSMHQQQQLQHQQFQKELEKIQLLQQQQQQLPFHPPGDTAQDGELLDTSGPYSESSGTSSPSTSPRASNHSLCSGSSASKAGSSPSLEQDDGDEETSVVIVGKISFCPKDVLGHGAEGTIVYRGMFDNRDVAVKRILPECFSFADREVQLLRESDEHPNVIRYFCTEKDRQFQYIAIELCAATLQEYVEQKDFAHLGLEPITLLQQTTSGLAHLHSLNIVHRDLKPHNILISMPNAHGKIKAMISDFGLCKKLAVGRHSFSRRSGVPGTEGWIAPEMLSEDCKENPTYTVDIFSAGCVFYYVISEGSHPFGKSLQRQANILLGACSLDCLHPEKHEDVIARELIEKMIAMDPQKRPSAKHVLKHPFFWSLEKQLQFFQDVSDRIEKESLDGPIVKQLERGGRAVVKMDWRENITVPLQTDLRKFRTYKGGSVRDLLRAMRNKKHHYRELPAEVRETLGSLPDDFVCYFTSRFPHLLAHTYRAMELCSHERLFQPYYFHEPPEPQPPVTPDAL
Method: In some embodiments IRE-la inhibitor compounds form a complex with IRE-1α. […] Other substrates also can be used to detect cleavage. See US 2007/0105123.
A fusion protein comprising glutathione S transferase (GST) and human IRE-1α (GST-IRE-1α) obtained from a 500 ml baculovirus-infected insect cell culture can be used to measure IRE-1α activity in vitro.
Five μl of a reaction mixture comprising IX reaction buffer (5× reaction buffer is 100 mM Hepes pH 7.5, 250 mM KOAc, 2.5 mM MgCl2), 3 mM DTT, and 0.4% polyethylene glycol water is added to each well of 384 well plates. Twenty-five nanoliters of a 1 mM test compound solution are added to test wells. Three μl of a […] IRE-1α preparation are added to each test well and to positive control wells (final concentration 5.82 ng/well). Negative control wells contain only reaction mixture and test compound.
After spinning the plates at 1200 rpm for 30 seconds, 3 μl of an IRE-1α human mini-XBP-1 mRNA stem-loop substrate 5′-[…]-3′ (SEQ ID NO:1), labeled with the fluorescent dye Cy5 at the 5′ end and Black Hole Quencher 2 (BH2) at the 3′ end, are added to each well of a control plate. The plates are again spun at 1200 rpm for 30 seconds. Final concentrations for the assay are: 63 nM IRE-1α substrate, 5.82 ng IRE-1α protein, and 2.5 μM test compound.
The plates are covered with lids and incubated for one hour at 30° C. The plates are then transferred to an ACQUEST™ microplate reader. Data is analyzed using data analysis software, and the percent activity of IRE-1α is calculated.
IC50 for inhibition of IRE-1α of compounds identified in Table 1 was measured as described in EXAMPLE 35.

[3] = tested on: human myeloma RPMI8226 tumor xenografts; assay: RPMI8226 xenograft efficacy model; assay type: in vivo, SCID mice; conditions: 0.75 mg/kg IV twice weekly
Method: SCID mice are evaluated for their ability to support implantation of desired tumor cells in support of model development and characterization. Mice are injected intravenously […] or implanted either subcutaneously (SC) or intraperitoneally (IP). To generate a relevant animal model mimicking human disease, it is desirable that all three approaches are evaluated for improved implantation rates and relevant disease progression, as is well known in the art. SC injections provide an easy way to measure tumor growth and efficacy, and IV and IP injections represent a more physiologically relevant model of human tumor spread. SC injections are given primarily in the flank, while IV injections are administered in the tail vein. Mice are manually restrained for SC and IP injections, and a Broome mouse restrainer is used for IV injections.
SCID mice are implanted with tumor cells (human RPMI8226 myeloma cells) via IP, IV or SC routes based on the results from the xenograft model development studies (above). Mice are treated with compound or mock treated (vehicle) for a period of up to 4-5 weeks. Compound administration can be via IV, IP, PO or SC routes. […]
Mice are monitored for tumor growth, regression and general health. […] Tumor growth is measured by calipers, ultrasound, or by abdominal lavage. Biomarkers in the blood or tumor can evaluated (primarily XBP-1 splicing). […]

[4] = average cellular EC50, XBP-1 splicing in myeloma cells

SMILES | IC50 [2] [µM] | EC50 [1, 4] [µM] | EC50 [1] [µM] | tumor growth [3]
COCCOc1cc(O)c(C=O)c2oc(=O)cc(C)c12 [Example 121] | < 0.1 | – | < 10 | –
COCCNC(=O)c1ccc(-c2c(C)c3cc(Cl)c(O)c(C=O)c3oc2=O)cc1 [Example 150] | < 1 | – | > 10 | –
CC(C)c1cc(=O)oc2c(C=O)c(O)ccc12 [Example 5] | < 0.1 | – | < 10 | –
Cc1c(-c2cccc(C(=O)N3CCN(C)CC3)c2)c(=O)oc2c(C=O)c(O)ccc12 [Example 10] | < 0.1 | – | < 10 | –
Cc1c(-c2cccc(C(=O)N(C)C)c2)c(=O)oc2c(C=O)c(O)ccc12 [Example 20] | < 1 | – | > 10 | –
COCCOc1cc2c(C)c(CCC(=O)N3CCOCC3)c(=O)oc2c(C=O)c1O [Example 181] | < 0.1 | < 10 | – | –
COc1cc2c(C)c(C(C)C)c(=O)oc2c(C=O)c1O [Example 200] | < 0.1 | – | > 10 | –
Cc1nc(-c2cc3ccc(O)c(C=O)c3oc2=O)sc1C(=O)N1CCN(C)CC1 [Example 108] | < 0.1 | < 10 | – | –
Cc1c(CC(=O)N2CCOCC2)c(=O)oc2c(C=O)c(O)ccc12 [Example 129] | < 0.1 | < 10 | – | –
Cc1c(CC(=O)O)c(=O)oc2c(C=O)c(O)ccc12 [Example 70] | < 0.1 | – | > 10 | –
COc1cc(O)c(C=O)c2oc(=O)c(CCC(=O)N3CCOCC3)c(C)c12 [Example 192] | < 1 | < 10 | – | –
COCc1c(CCC(=O)NCCN2CCOCC2)c(=O)oc2c(C=O)c(O)c(OC)cc12 [Example 140] | < 1 | > 10 | – | –
COCCOc1cc(O)c(C=O)c2oc(=O)c(CCC(=O)NCCN3CCOCC3)c(C)c12 [Example 156] | < 1 | > 10 | – | –
CN1CCN(C(=O)c2cnc(N3CCc4c(ccc(O)c4C=O)C3)s2)CC1 [Example 33] | < 10 | – | > 10 | –
COc1cc(O)c(C=O)c2oc(=O)cc(C)c12 [Example 120] | < 1 | – | < 10 | –
COCCNC(=O)CCc1c(C)c2cc(OC)c(O)c(C=O)c2oc1=O [Example 171] | < 0.1 | – | < 10 | –
CN1CCN(C(=O)c2cccc(-c3ccc4c(C=O)c(O)ccc4n3)c2)CC1 [Example 42] | < 1 | < 10 | – | –
CCNC(=O)CCc1c(C)c2c(OCCOC)cc(O)c(C=O)c2oc1=O [Example 155] | < 1 | – | < 10 | –
CC(C)C[C@H](NC(=O)[C@H](Cc1ccccc1)NC(=O)c1cnccn1)B(O)O [bortezomib, [(1R)-3-methyl-1-[[(2S)-1-oxo-3-phenyl-2-[(pyrazinylcarbonyl)amino]propyl]amino]butyl]boronic acid] | – | – | – | suppression of tumor growth
COCCOc1cc(O)c(C=O)c2oc(=O)c(CCC(=O)NCCN(C)C)c(C)c12 [Example 157] | < 1 | > 10 | – | –
CN1CCN(C(=O)c2cnc(-c3cc4ccc(O)c(C=O)c4oc3=O)s2)CC1 [Example 107] | < 0.1 | < 10 | – | –
CN1CCN(C(=O)c2ccc(-c3ccc4c(C=O)c(O)ccc4n3)cc2)CC1 [Example 41] | < 1 | < 10 | – | –
CCOC(=O)c1sc(-c2cc3ccc(O)c(C=O)c3oc2=O)nc1C [Example 68] | < 0.1 | < 10 | – | –
COc1cc(O)c(C=O)c2oc(=O)c(CC(=O)N3CCOCC3)c(C)c12 [Example 177] | < 0.1 | < 10 | – | –
COc1cc2c(C(C)C)cc(=O)oc2c(C=O)c1O [Example 146] | < 0.1 | < 10 | – | –
O=Cc1c(O)ccc2nc(-c3cccc(C(=O)NCCN4CCOCC4)c3)ccc12 [Example 46] | < 0.1 | – | < 10 | –

Further lines, with some results ahead:

IC50 [2] [µM] | EC50 [1, 4] [µM] | SMILES | EC50 [1] [µM] | tumor growth [3]
< 1 | < 10 | COc1cc2c(C)c(CC(=O)NCCN(C)C)c(=O)oc2c(C=O)c1O [Example 170] | – | –
< 0.1 | < 10 | COc1cc2c(C)c(-c3ccc(C(=O)N4CCN(C)CC4)s3)c(=O)oc2c(C=O)c1O [Example 141] | – | –
< 0.1 | < 10 | COCCOCCc1c(C)c2cc(OC)c(O)c(C=O)c2oc1=O [Example 127] | – | –
< 0.1 | < 10 | [2H]C(=O)c1c(O)ccc2c(C)c(-c3ccc(C(=O)NCCN4CCOCC4)cc3)c(=O)oc12 [Example 116] | – | –
< 0.1 | < 10 | Cc1c(-c2ccc(C(=O)N3CCOCC3)cc2)c(=O)oc2c(C=O)c(O)ccc12 [Example 12] | – | –
< 0.1 | < 10 | COCCNC(=O)Cc1c(C)c2c(OC)cc(O)c(C=O)c2oc1=O [Example 176] | – | –
< 0.1 | < 10 | COCCNC(=O)CCc1c(C)c2cc(OCCOC)c(O)c(C=O)c2oc1=O [Example 184] | – | –
< 1 | < 10 | COc1cc2c(C)c(-c3ccc(C(=O)NCCN4CCOCC4)s3)c(=O)oc2c(C=O)c1O [Example 143] | – | –
< 1 | < 10 | COCCNC(=O)Cc1c(C)c2cc(OC)c(O)c(C=O)c2oc1=O [Example 166] | – | –
< 1 | > 10 | COCCOc1cc2c(C)c(CCC(=O)NCCN3CCOCC3)c(=O)oc2c(C=O)c1O [Example 186] | – | –
< 0.1 | < 10 | CCc1cc2c(C)c(-c3ccc(C(=O)NCCOC)cc3)c(=O)oc2c(C=O)c1O [Example 118] | – | –
< 0.1 | > 10 | CCc1cc2c(=O)c(-c3nc(C)cs3)coc2c(C=O)c1O [Example 39] | – | –
< 0.1 | < 10 | COc1cc(O)c(C=O)c2oc(=O)c(CC(=O)NCCN(C)C)c(C)c12 [Example 180] | – | –
< 1 | < 10 | COCOCCNC(=O)Cc1c(C)c2cc(OC)c(O)c(C=O)c2oc1=O [Example 149] | – | –
